Experimental data: patent US11839613B2, “Pyrimidine derivatives as PGE2 receptor modulators” (IDORSIA PHARMACEUTICALS LTD, priority 2017, dated 2023)

Assays:
PTGER2 (EP2) = PTGER2 (EP2) (Homo sapiens (Human), UniProt P43116); assay: hEP2 b-arrestin assay (PathHunter HEK 293 PTGER2 b-arrestin cells); format: cell-based; conditions: antagonistic activity, beta-arrestin assay; read-out: hEP2 b-arr IC50
Experimental: Plate is pre-incubated 15 minutes at 37° C. Then five microliters of PGE2 (final conc. 5 μM) are transferred into the assay plate. Plate is incubated 120 minutes at 37° C.
(each concentration is measured in duplicate)

EP2 = EP2 (Homo sapiens (Human), UniProt P43116); assay: hEP2 cAMP assay (SF295 glioblastoma cells, HTRF cAMP); format: cell-based; conditions: antagonistic activity
Method in brief: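 PGE2-driven cAMP accumulation was measured by HTRF in SF295 cells, which express endogenous EP2 only. Cells in assay buffer with 2 mM IBMX were pre-incubated 45 min at RT, then incubated 30 min at RT. Detection used competition between cellular cAMP and d2-cAMP for a cryptate anti-cAMP antibody.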

EP4 = EP4 (Homo sapiens (Human), UniProt P35408); assay: hEP4 cAMP assay (BT549 breast cancer cells, HTRF cAMP); format: cell-based; conditions: antagonistic activity, PGE2 6 nM
Method in brief: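 cAMP accumulation quantified by HTRF competition between cellular cAMP and d2-labeled cAMP for cryptate anti-cAMP antibody. Cells: endogenously EP4-expressing BT549, buffer with 2 mM IBMX; 45 min RT compound preincubation preceded 30 min RT challenge with PGE2 at 6 nM final.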

PTGER4 (EP4) = PTGER4 (EP4) (Homo sapiens (Human), UniProt P35408)
PTGER4 (EP4), sequence (P35408 whole entry): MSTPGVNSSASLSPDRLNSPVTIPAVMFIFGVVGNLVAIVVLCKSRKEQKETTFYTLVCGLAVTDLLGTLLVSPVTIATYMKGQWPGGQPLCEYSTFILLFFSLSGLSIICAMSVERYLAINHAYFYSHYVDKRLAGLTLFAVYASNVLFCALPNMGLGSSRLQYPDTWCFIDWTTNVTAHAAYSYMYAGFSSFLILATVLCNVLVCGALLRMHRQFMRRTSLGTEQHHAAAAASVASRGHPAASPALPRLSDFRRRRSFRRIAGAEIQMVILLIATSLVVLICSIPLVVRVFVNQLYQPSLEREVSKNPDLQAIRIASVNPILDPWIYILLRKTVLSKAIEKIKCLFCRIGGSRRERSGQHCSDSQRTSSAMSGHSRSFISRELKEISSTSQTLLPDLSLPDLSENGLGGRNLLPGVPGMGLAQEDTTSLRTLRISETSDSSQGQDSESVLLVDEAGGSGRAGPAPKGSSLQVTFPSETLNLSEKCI

PTGER2 (EP2), sequence (P43116 whole entry): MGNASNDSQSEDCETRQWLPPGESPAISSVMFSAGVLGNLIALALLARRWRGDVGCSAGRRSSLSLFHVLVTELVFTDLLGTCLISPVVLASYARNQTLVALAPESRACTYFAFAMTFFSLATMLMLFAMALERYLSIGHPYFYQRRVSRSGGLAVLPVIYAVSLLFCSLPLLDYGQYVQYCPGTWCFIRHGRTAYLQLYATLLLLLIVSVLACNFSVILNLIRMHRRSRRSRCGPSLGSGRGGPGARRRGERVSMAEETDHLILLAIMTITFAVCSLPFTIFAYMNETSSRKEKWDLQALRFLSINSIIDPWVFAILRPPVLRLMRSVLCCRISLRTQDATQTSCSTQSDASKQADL
EP2, sequence (P43116 whole entry): as above
EP4, sequence (P35408 whole entry): as the sequence (P35408 whole entry) above

SMILES	IC50 (PTGER2 (EP2)) [nM]	IC50 (EP2) [nM]	IC50 (EP4) [nM]	IC50 (PTGER4 (EP4)) [nM]
CCOc1cc(-c2cc(NCCc3cc4ccsc4cc3OC)ncn2)ccc1CC(=O)O [Ex 118]	34	66	88	74
Cc1c(CCNc2cc(-c3ccc(C(=O)O)c(OC4CCC4)c3)ncn2)ccc2sccc12 [Ex 268]	25	47	342	688
COc1cc2c(cc1CCNc1cc(-c3ccc(C(=O)O)c(OC4CCC4)c3)ncn1)OCCO2 [Ex 187]	74	64	206	144
CSc1cc(-c2cc(NCCc3ccc4c(c3)CCS4)ncn2)ccc1C(=O)O [Ex 138]	74	61	120	358
COc1cc2sccc2cc1CCNc1cc(-c2ccc(C(=O)O)c(OC3CCC3)c2)ncn1 [Ex 63]	16	12	33	50
CCOc1cc(-c2cc(NCCc3cc4c(cc3OC)OCCO4)ncn2)ccc1OCC(=O)O [Ex 120]	114	111	92	61
CCOc1cc(-c2cc(NCCc3ccc4scc(C#N)c4c3)ncn2)sc1C(=O)O [Ex 27]	75	19	17	16
CCOc1cc(-c2cc(NCCc3ccc4c(c3)CCS4)ncn2)sc1C(=O)O [Ex 15]	177	28	8	12
CCOc1cc(-c2cc(NCCc3c(F)cc4ncccc4c3F)ncn2)sc1C(=O)O [Ex 43]	54	43	21	44
CCOc1cc(-c2cc(NCCc3ccc4cccc(F)c4c3)ncn2)ccc1CC(=O)O [Ex 314]	3460	9230	701	378
COc1cc2ccccc2c(F)c1CCNc1cc(-c2ccc(CC(=O)O)c(SC)c2)ncn1 [Ex 115]	243	682	85	53
CCOc1cc(-c2cc(NCCc3cc4c(Cl)ccnc4cc3C)ncn2)sc1C(=O)O [Ex 178]	30	54	188	164
CCOc1cc2ccccc2cc1CCNc1cc(-c2ccc(OCC(=O)O)c(OCC)c2)ncn1 [Ex 160]	35	93	158	24
CCOc1cc(-c2cc(NCCc3ccc4ncccc4c3F)ncn2)sc1C(=O)O [Ex 69]	438	222	38	59
CCOc1cc(-c2cc(NCCc3cc4cccnc4c(C)c3Cl)ncn2)sc1C(=O)O [Ex 87]	173	134	51	85
CCOc1cc(-c2cc(NCCc3cc4ccsc4cc3C#N)ncn2)ccc1C(=O)O [Ex 128]	151	76	103	192
CCOc1cc(-c2cc(NCCc3ccc4scnc4c3)ncn2)sc1C(=O)O [Ex 88]	107	64	53	59
CCOc1cc(-c2cc(NCCc3c(OC)cc4ccccc4c3C)ncn2)ccc1CC(=O)O [Ex 61]	148	214	46	28
CCOc1cc(-c2cc(NCCc3ccc4cccc(F)c4c3)ncn2)ccc1C(=O)O [Ex 269]	1640	6510	434	588
COc1cc2c(cc1CCNc1cc(-c3ccc(CC(=O)O)c(SC)c3)ncn1)OCCO2 [Ex 197]	127	176	224	300
O=C(O)c1ccc(-c2cc(NCCc3ccc4c(c3)CCS4)ncn2)cc1OC1CCC1 [Ex 170]	241	94	168	124
CCOc1cc(-c2cc(NCCc3cc4ccccc4c(F)c3OC)ncn2)ccc1C(=O)O [Ex 174]	409	269	90	88
COc1cc2ccccc2c(C)c1CCNc1cc(-c2ccc(CC(=O)O)c(SC)c2)ncn1 [Ex 163]	85	246	158	98
